Tests used:
[1] = molecular target: T1, human neutrophil elastase (Homo sapiens, UniProt P08246); assay: Inhibitory action 2 against human neutrophil elastase (Test Example 2; fluorogenic substrate MeOSuc-AAPV-AMC, buffer with 400 mM NaCl, 0.2 mg/ml BSA); type: biochemical; conditions: 37° C., read-out: IC50 value (compound concentration required for 50% inhibition of human neutrophil elastase)
T1 construct: purchased Elastin Products Company
T1 sequence (P08246 30-267): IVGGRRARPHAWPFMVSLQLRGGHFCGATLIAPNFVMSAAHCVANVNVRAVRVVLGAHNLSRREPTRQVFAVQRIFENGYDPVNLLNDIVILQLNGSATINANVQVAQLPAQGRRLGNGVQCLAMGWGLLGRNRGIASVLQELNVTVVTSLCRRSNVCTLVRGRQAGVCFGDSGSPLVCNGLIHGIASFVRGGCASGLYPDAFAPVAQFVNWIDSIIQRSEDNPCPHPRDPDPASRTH
Outline: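 HNE (0.4 unit/ml in buffer) preincubated 5 min at 37° C with compound in 200 mM HEPES pH 7.5, 400 mM NaCl, 0.2 mg/ml BSA; reaction started with MeOSuc-AAPV-AMC (0.5 mM stock) and run 5 min at 37° C. AMC fluorescence (ex 380, em 460 nm) gave percent inhibition.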

Row | SMILES | IC50 [1] [nM] | melting point [°C]
1 | Cc1c(-c2c(C(=O)N3CCCC3)cnn2-c2ccc(C#N)cc2)c(=O)n(C)c(=O)n1-c1cccc(C(F)(F)F)c1 [Example 162] | 12.6 | 227
2 | Cc1c(-c2ccnn2-c2ccc(C#N)cc2)c(=O)n(C(C)C(N)=O)c(=O)n1-c1cccc(C(F)(F)F)c1 (stereo not shown) [Example 377] | 11 | 226
